Measured values as given in ChEMBL document CHEMBL3885881, “DrugMatrix”.

Species: Rattus norvegicus
Assay: DrugMatrix - Regimen: Daily Repeat
Assay type: toxicity, organism-based, Sprague-Dawley
Parameters: regimen Daily Repeat, gender Male, age 6-8 weeks
Conditions: in vivo, po, 0 mg/kg, route oral GAVAGE, dose level Control, vehicle .5 % CMC; for ABSOLUTE BASOPHIL / ABSOLUTE EOSINOPHIL / ABSOLUTE LYMPHOCYTE / ABSOLUTE MONOCYTE / ABSOLUTE SEGMENTED NEUTROPHIL / BASOPHIL / EOSINOPHIL / ERYTHROCYTE COUNT / HEMATOCRIT / HEMOGLOBIN / LEUKOCYTE COUNT / LYMPHOCYTE / MEAN CORPUSCULAR HEMOGLOBIN / MEAN CORPUSCULAR HEMOGLOBIN CONCENTRATION / MEAN CORPUSCULAR VOLUME / MONOCYTE / NEUTROPHIL / NUCLEATED RED BLOOD CELLS / PLATELET COUNT: tissue Blood; for ALANINE AMINOTRANSFERASE / ALBUMIN / ALKALINE PHOSPHATASE / ASPARTATE AMINOTRANSFERASE / BLOOD UREA NITROGEN / CARBON DIOXIDE / CHLORIDE / CHOLESTEROL / CREATINE PHOSPHOKINASE / CREATININE / GLUCOSE / LACTATE DEHYDROGENASE / LIPASE / PHOSPHORUS / POTASSIUM / SODIUM / TOTAL BILIRUBIN / TOTAL PROTEIN / URIC ACID: tissue Plasma

## COc1ccccc1OCC(O)COC(N)=O (stereo unspecified) [METHOCARBAMOL]
72 h, time 3 day
  ABSOLUTE BASOPHIL: 0 CELLS/uL
  ABSOLUTE EOSINOPHIL: 171.33 CELLS/uL
  ABSOLUTE LYMPHOCYTE: 13776.5 CELLS/uL
  ABSOLUTE MONOCYTE: 180.83 CELLS/uL
  ABSOLUTE SEGMENTED NEUTROPHIL: 1121.33 CELLS/uL
  BASOPHIL: 0%
  EOSINOPHIL: 1%
  ERYTHROCYTE COUNT: 5.56 x10E6/uL
  HEMATOCRIT: 34.75%
  HEMOGLOBIN: 13.68 G/DL
  LEUKOCYTE COUNT: 15.25 x10E3/uL
  LYMPHOCYTE: 90.17%
  MEAN CORPUSCULAR HEMOGLOBIN: 24.6 pg
  MEAN CORPUSCULAR HEMOGLOBIN CONCENTRATION: 39.4 G/DL
  MEAN CORPUSCULAR VOLUME: 62.48 fL
  MONOCYTE: 1.17%
  NEUTROPHIL: 7.67%
  NUCLEATED RED BLOOD CELLS: 0 /100WBC
  PLATELET COUNT: 1342 x10E3/uL
  ALANINE AMINOTRANSFERASE: 49.67 u/L
  ALBUMIN: 4.15 G/DL
  ALKALINE PHOSPHATASE: 346.83 u/L
  ASPARTATE AMINOTRANSFERASE: 108.17 u/L
  BLOOD UREA NITROGEN: 17.33 mg/dL
  CARBON DIOXIDE: 25 mmol/L
  CHLORIDE: 100.83 MEQ/L
  CHOLESTEROL: 66.83 mg/dL
  CREATINE PHOSPHOKINASE: 788 u/L
  CREATININE: 0.18 mg/dL
  GLUCOSE: 151.67 mg/dL
  LACTATE DEHYDROGENASE: 982.5 u/L
  LIPASE: 10.33 u/L
  PHOSPHORUS: 11.23 mg/dL
  POTASSIUM: 6.37 MEQ/L
  SODIUM: 141.02 MEQ/L
  TOTAL BILIRUBIN: 0.18 mg/dL
  TOTAL PROTEIN: 5.9 G/DL
  URIC ACID: 1.8 mg/dL
120 h, time 5 day
  ABSOLUTE BASOPHIL: 0 CELLS/uL
  ABSOLUTE EOSINOPHIL: 69 CELLS/uL
  ABSOLUTE LYMPHOCYTE: 13632.83 CELLS/uL
  ABSOLUTE MONOCYTE: 139.83 CELLS/uL
  ABSOLUTE SEGMENTED NEUTROPHIL: 1225 CELLS/uL
  BASOPHIL: 0%
  EOSINOPHIL: 0.33%
  ERYTHROCYTE COUNT: 5.52 x10E6/uL
  HEMATOCRIT: 33.98%
  HEMOGLOBIN: 13.22 G/DL
  LEUKOCYTE COUNT: 15.07 x10E3/uL
  LYMPHOCYTE: 90.83%
  MEAN CORPUSCULAR HEMOGLOBIN: 23.95 pg
  MEAN CORPUSCULAR HEMOGLOBIN CONCENTRATION: 38.9 G/DL
  MEAN CORPUSCULAR VOLUME: 61.53 fL
  MONOCYTE: 0.83%
  NEUTROPHIL: 8%
  NUCLEATED RED BLOOD CELLS: 0 /100WBC
  PLATELET COUNT: 1196 x10E3/uL
  ALANINE AMINOTRANSFERASE: 49.17 u/L
  ALBUMIN: 4.2 G/DL
  ALKALINE PHOSPHATASE: 352.33 u/L
  ASPARTATE AMINOTRANSFERASE: 89.67 u/L
  BLOOD UREA NITROGEN: 18 mg/dL
  CARBON DIOXIDE: 27.67 mmol/L
  CHLORIDE: 101 MEQ/L
  CHOLESTEROL: 72.83 mg/dL
  CREATINE PHOSPHOKINASE: 417.5 u/L
  CREATININE: 0.18 mg/dL
  GLUCOSE: 150.5 mg/dL
  LACTATE DEHYDROGENASE: 517.33 u/L
  LIPASE: 9 u/L
  PHOSPHORUS: 11.87 mg/dL
  POTASSIUM: 6.57 MEQ/L
  SODIUM: 143.62 MEQ/L
  TOTAL BILIRUBIN: 0.2 mg/dL
  TOTAL PROTEIN: 6.08 G/DL
  URIC ACID: 1.45 mg/dL
